As usually defined, the inhibition is the share of the control response that was lost under treatment. The IC50 is the concentration at which inhibition is half-maximal. High values mean weaker potency in that assay, low ones greater potency in that assay.

Structures are written as SMILES. Some results are limits rather than exact numbers.

Among the data in patent publication US10689362B2, “Quinoxaline compounds as type III receptor tyrosine kinase inhibitors” (Development Center for Biotechnology, priority 2016, dated 2020) are inhibition and IC50 values, retold here.

Assay [1] concerns osteoclast precursors (osteoclast differentiation). The experiment in a line: Osteoclast tartrate-resistant acid phosphatase assay. Format: cell-based. Particulars: 168 h, at 1 μM treatment, 7 days, RANKL and M-CSF, read-out: inhibition activity against osteoclast differentiation. A digest of the protocol:
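Differentiation inhibition was scored at 1 μM compound in duplicate, using supernatant TRAP activity read at 550 nm with an acid phosphatase kit.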

The next assay concerns the target c-KIT kinase (Homo sapiens (Human), UniProt P10721). The experiment in a line: c-KIT kinase assay (radiometric). Format: biochemical. In a few lines:
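Recombinant c-Kit (20 ng) with 2 μg Poly-(Glu4:Tyr1) in MOPS pH 7.0 buffer with MgCl2/MnCl2, 10 μM ATP plus [^33P]-ATP, 4% DMSO final, 60 min at 30° C. Stopped with phosphoric acid, filter-captured and scintillation counted; IC50 from curve fit.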

The next assay concerns the target CSF-1R kinase (Homo sapiens (Human), UniProt P07333). The experiment in a line: CSF-1R kinase assay (AlphaScreen). The class given is biochemical. Conditions: class symbol. The method, then: Inhibition of CSF-1R kinase activity by a test compound disclosed herein was estimated by AlphaScreen (PerkinElmer). […] Reactions were incubated at 30° C. for 45 min and stopped by adding 5 μL of 50 mM EDTA. Analysis of resulting product using an AlphaScreen kit, and counted with Enspire Alpha (PerkinElmer). […] The IC50 values of quinoxaline compounds of this invention against CSF-1R kinase were determined using the GraphPad Prism 5 software.

Another assay deals with FLT3 kinase (Homo sapiens (Human), UniProt P36888). Kind of assay: FLT3 kinase assay (radiometric). The class given is biochemical. Conditions: bound. A digest of the protocol:
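Recombinant FLT3 (5 ng) phosphorylating poly(Glu4:Tyr1) (2 μg) with 10 μM ATP plus [^33P]-ATP in MOPS pH 7.0 buffer, 4% DMSO final, 60 min at 30° C. Reaction stopped with phosphoric acid, filter-captured and scintillation-counted; IC50 derived from dose-response.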

The target of the next assay is PDGFRβ kinase (Homo sapiens (Human), UniProt P09619). The experiment in a line: PDGFRβ kinase assay (radiometric). The class given is biochemical. Conditions: bound. In a few lines:
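Radiometric assay: recombinant PDGFRβ with poly(Glu4:Tyr1) in MOPS pH 7.0 buffer containing Mg2+/Mn2+, 10 μM ATP plus [33P]-ATP, and compound at 4% DMSO final. Incubated 60 min at 30° C, stopped with phosphoric acid, filter-captured and scintillation-counted. IC50 from curve fitting.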

Assay [2] deals with MV4-11 human acute myeloid leukemia cell with FLT3-ITD mutation. The experiment in a line: MV4-11 cell proliferation assay (CellTiter-96). Format: cell-based. Particulars: Cytotoxicity, MV4-11 cells, 72 hours. A digest of the protocol: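 Growth inhibition read as absorbance at 490 nm after 4 hours with CellTiter96 AQueous One reagent. Before that, FLT3-ITD-dependent MV4-11 cells (6500 cells/well, overnight at 37° C., 5% CO2) received a rising compound concentration series for 72 hours.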

Assay [3] concerns Kasumi-1 human acute myeloid leukemia cell with c-KIT N822K activating mutation. Kind of assay: Kasumi-1 cell proliferation assay (CellTiter-96). The class given is cell-based. Particulars: Cytotoxicity, Kasumi-1 cells, 72 hours. A digest of the protocol:
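After 72 h of treatment with a compound dilution series, growth of c-KIT N822K-driven Kasumi-1 cells (64000 per well, plated the day before) was read as 490 nm absorbance. This followed a 4 h incubation with CellTiter96 AQueous One reagent.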

Assay [4] relates to CSF-1-dependent M-NFS-60 mouse myeloid leukemia cell. The experiment in a line: M-NFS-60 cell proliferation assay (CellTiter-96). Particulars: Cytotoxicity, M-NFS-60 cells, 72 hours. Format: cell-based. In a few lines:
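Growth inhibition was measured as absorbance at 490 nm after 4 h with CellTiter 96 AQueous One reagent. Beforehand, M-NFS-60 cells (2000/well, CSF-1-dependent) were treated with a compound dilution series for 72 h following overnight plating at 37 °C, 5% CO2.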

In assay [5] the test system is THP-1 human acute monocytic leukemia cell harboring NRAS G12D mutation. Kind of assay: THP-1 cell proliferation assay (counter screen, CellTiter-96). Format: cell-based. Conditions: Cytotoxicity, THP-1 cells (counter screen), 72 hours. In a few lines:
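Growth inhibition read as 490 nm absorbance after 4 h with CellTiter96 AQueous One reagent, following 72 h compound exposure at rising concentrations. THP-1 (NRAS G12D) cells plated at 5000 per well and left overnight at 37 °C, 5% CO2 before dosing.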
For orientation: A counterscreen serves to expose hits that act by an unwanted route or on another target.

Sequence of c-KIT kinase (P10721 26-976): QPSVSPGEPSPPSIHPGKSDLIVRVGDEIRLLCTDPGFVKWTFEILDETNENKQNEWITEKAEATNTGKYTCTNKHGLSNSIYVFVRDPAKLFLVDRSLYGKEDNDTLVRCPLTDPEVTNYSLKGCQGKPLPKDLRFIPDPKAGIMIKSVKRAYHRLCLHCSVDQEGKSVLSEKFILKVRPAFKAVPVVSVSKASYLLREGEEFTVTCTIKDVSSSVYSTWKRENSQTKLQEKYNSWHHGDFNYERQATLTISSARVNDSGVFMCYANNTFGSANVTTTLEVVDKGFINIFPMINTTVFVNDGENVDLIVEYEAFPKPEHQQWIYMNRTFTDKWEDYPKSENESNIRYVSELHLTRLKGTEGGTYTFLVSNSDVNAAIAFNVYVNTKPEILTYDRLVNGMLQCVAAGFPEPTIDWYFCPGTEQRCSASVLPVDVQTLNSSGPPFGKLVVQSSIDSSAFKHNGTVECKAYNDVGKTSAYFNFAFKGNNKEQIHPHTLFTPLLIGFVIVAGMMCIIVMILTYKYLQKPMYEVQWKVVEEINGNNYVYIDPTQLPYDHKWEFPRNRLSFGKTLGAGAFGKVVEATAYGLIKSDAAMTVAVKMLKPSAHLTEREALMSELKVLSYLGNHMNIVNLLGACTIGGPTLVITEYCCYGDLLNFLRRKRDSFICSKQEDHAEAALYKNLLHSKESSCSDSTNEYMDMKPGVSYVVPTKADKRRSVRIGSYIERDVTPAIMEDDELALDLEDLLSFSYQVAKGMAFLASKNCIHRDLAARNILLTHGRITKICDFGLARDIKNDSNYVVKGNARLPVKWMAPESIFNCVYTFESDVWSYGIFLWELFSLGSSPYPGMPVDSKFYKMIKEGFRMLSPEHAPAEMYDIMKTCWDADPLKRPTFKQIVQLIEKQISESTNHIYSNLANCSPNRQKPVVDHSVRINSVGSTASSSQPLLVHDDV
Sequence of PDGFRβ kinase (P09619 33-1106): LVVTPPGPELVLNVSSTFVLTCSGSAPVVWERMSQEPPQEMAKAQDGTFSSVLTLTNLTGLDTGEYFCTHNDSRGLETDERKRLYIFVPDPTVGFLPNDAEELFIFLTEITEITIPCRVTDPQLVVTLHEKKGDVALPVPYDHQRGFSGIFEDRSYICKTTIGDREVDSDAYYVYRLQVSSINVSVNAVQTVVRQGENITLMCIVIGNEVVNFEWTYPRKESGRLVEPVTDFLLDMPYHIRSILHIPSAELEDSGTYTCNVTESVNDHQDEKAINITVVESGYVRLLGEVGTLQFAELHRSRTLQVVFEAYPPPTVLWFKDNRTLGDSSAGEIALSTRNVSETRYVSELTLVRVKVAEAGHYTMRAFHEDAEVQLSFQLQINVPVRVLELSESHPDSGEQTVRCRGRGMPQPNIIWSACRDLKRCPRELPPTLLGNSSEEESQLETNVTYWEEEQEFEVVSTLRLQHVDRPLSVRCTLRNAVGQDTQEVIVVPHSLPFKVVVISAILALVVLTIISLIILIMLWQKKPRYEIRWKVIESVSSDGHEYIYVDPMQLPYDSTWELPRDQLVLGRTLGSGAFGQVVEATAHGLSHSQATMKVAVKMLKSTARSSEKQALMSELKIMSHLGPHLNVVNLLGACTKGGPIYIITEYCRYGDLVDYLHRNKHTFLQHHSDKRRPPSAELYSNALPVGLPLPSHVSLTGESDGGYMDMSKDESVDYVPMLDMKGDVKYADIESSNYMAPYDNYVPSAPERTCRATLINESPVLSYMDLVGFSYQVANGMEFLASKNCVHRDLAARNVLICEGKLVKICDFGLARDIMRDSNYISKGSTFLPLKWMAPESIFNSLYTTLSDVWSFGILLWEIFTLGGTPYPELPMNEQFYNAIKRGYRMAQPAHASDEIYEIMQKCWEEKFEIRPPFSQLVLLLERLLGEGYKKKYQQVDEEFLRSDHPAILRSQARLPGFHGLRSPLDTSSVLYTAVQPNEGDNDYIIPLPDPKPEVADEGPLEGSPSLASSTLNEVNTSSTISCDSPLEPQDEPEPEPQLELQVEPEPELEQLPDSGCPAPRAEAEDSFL
Sequence of CSF-1R kinase (P07333 20-972): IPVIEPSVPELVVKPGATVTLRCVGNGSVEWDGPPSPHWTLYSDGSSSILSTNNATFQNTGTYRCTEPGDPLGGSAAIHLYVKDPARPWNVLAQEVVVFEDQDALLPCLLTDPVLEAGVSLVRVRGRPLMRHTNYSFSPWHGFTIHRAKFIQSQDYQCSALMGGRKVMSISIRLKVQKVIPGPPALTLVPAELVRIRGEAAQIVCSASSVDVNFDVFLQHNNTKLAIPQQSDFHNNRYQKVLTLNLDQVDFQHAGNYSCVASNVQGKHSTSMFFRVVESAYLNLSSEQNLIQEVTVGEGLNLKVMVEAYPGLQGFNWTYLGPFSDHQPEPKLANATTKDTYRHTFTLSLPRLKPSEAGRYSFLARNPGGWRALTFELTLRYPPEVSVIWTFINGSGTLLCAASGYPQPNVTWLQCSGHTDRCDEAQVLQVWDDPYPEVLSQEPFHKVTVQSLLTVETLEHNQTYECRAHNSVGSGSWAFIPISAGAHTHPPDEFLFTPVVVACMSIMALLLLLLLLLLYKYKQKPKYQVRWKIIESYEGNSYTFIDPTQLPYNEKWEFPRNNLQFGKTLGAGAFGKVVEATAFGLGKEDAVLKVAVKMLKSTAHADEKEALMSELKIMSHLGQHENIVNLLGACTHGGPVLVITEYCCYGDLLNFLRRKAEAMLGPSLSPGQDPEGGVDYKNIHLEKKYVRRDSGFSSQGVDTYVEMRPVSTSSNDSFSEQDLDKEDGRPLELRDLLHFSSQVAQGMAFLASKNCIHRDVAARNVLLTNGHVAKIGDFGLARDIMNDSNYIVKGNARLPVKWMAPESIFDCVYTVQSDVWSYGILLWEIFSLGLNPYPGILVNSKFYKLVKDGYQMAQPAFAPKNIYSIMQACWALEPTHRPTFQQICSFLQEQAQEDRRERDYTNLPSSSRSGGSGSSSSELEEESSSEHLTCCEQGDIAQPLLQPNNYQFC
Sequence of FLT3 kinase (P36888 27-993): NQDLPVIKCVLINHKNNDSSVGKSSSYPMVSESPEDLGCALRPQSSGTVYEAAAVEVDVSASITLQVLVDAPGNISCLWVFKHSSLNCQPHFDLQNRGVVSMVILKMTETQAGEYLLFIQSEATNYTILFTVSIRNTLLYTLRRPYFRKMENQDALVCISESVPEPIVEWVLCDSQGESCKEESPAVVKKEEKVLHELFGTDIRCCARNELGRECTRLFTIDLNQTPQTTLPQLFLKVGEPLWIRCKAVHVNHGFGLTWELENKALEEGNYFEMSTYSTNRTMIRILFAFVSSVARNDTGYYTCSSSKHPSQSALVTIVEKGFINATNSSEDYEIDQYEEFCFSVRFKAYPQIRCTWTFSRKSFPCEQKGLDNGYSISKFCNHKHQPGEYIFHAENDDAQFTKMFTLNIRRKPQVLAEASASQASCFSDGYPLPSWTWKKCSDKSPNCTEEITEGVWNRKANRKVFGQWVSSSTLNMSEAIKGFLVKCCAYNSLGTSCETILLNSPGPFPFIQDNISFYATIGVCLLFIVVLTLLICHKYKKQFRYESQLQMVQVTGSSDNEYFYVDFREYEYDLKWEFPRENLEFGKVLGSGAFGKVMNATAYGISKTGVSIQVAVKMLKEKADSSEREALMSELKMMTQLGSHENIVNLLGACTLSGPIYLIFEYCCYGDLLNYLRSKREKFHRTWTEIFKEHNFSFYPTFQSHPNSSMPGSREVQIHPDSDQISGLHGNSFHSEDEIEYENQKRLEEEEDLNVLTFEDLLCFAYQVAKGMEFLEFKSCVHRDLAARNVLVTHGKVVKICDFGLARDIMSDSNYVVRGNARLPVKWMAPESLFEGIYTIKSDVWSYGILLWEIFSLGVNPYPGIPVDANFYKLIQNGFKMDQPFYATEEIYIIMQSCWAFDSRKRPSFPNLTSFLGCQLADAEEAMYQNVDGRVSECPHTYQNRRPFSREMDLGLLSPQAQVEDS

For `COc1ccc(COc2ccc(Nc3ccc4ncc(C(C)C)nc4c3C#N)cc2OC)cc1` [Example 109, 3-isopropyl-6-((3-methoxy-4-((4-methoxybenzyl)oxy)phenyl)amino)quinoxaline-5-carbonitrile], in [1], the inhibition at 1 µM is above 50%. The IC50 against c-KIT kinase (bound) is above 1000 nM; at CSF-1R kinase it was below 100 nM; against FLT3 kinase it was above 1000 nM; against PDGFRβ kinase, above 1000 nM; in assay [2] it was above 10 µM; in assay [3], 1000 to 10000 nM. Further, the IC50 in assay [4] was 1000 to 10000 nM; in [5] it was above 10 µM.
Consider `COc1cc(Nc2ccc3ncc(N4CCOCC4)nc3c2C#N)ccc1OCc1ccc(CF)nc1` [Example 110, 6-((4-((6-(fluoromethyl)pyridin-3-yl)methoxy)-3-methoxyphenyl)amino)-3-morpholinoquinoxaline-5-carbonitrile], for which the inhibition at 1 µM in [1] was above 50%. Also, the IC50 was 100 to 300 nM at c-KIT kinase (class symbol); below 100 nM on CSF-1R kinase; above 1000 nM against FLT3 kinase; above 1000 nM at PDGFRβ kinase; 1 to 10 µM in assay [2]; 1000 to 10000 nM in assay [3]. In addition, the IC50 in [4] is below 300 nM; in assay [5], above 10 µM.
Take `COc1cc(Nc2ccc3ncc(N4CCOCC4)nc3c2C#N)ccc1OCc1ccc(C(F)F)nc1` [Example 111, 6-((4-((6-(difluoromethyl)pyridin-3-yl)methoxy)-3-methoxyphenyl)amino)-3-morpholinoquinoxaline-5-carbonitrile]: in assay [1], the inhibition at 1 µM was above 50%. The IC50 against c-KIT kinase (class symbol) was 100 to 300 nM; at CSF-1R kinase it was below 100 nM; at FLT3 kinase, above 1000 nM; against PDGFRβ kinase it was above 1000 nM; in [2] it was 1 to 10 µM; in assay [3], 300 to 1000 nM. Further, the IC50 in assay [4] is below 300 nM; in [5], above 10 µM.
Turning to `CCOc1ccc(COc2ccc(Nc3ccc4ncc(N5CCOCC5)nc4c3C#N)cc2OC)cn1` [Example 112, 6-((4-((6-ethoxypyridin-3-yl)methoxy)-3-methoxyphenyl)amino)-3-morpholinoquinoxaline-5-carbonitrile], the inhibition at 1 µM in assay [1] is above 50%. For the same compound, the IC50 on c-KIT kinase (class symbol) was below 100 nM; against CSF-1R kinase, below 100 nM; at FLT3 kinase, above 1000 nM; at PDGFRβ kinase it was above 1000 nM; in assay [2], 1 to 10 µM; in assay [3] it was below 300 nM. Moreover, the values for the IC50 in assay [4] and in assay [5] were below 300 nM and above 10 µM, respectively.
Consider `COc1cc(Nc2ccc3ncc(C4=CCOCC4)nc3c2C#N)ccc1OCc1ccc(C)nc1` [Example 113, 3-(3,6-dihydro-2H-pyran-4-yl)-6-((3-methoxy-4-((6-methylpyridin-3-yl)methoxy)phenyl)amino)quinoxaline-5-carbonitrile], for which the inhibition at 1 µM in assay [1] was above 50%. Also, the IC50 was below 100 nM at c-KIT kinase (class symbol); below 100 nM against CSF-1R kinase; above 1000 nM against FLT3 kinase; above 1000 nM against PDGFRβ kinase; 1 to 10 µM in assay [2]; 300 to 1000 nM in assay [3]. In addition, the IC50 is below 300 nM in [4] and above 10 µM in [5].
Turning to `COc1cc(Nc2ccc3ncc(C4CCOCC4)nc3c2C#N)ccc1OCc1ccc(C)nc1` [Example 114, 6-((3-methoxy-4-((6-methylpyridin-3-yl)methoxy)phenyl)amino)-3-(tetrahydro-2H-pyran-4-yl)quinoxaline-5-carbonitrile], in assay [1], the inhibition at 1 µM was above 50%. The IC50 on c-KIT kinase (class symbol) was 300 to 1000 nM; at CSF-1R kinase it was below 100 nM; against FLT3 kinase, above 1000 nM; against PDGFRβ kinase, above 1000 nM; in assay [2], 1 to 10 µM; in assay [3] it was 1000 to 10000 nM. For the same compound, the IC50 in [4] was 1000 to 10000 nM; in [5] it was above 10 µM.
